Measurements: article PMC12648627, “Structural and functional characterization of a metagenomically derived γ‐type carbonic anhydrase and its engineering into a hyperthermostable esterase” (Protein Science : A Publication of the Protein Society, 2025)

Columns and labels:
[1] = biological target: T1, γ-CaCAmut (Caloramator australicus, UniProt G0V3M6, V46E/T67E/G68E/Y159N, form not given); details: pNPA as substrate, 25°C; 1 mM inhibitor
T1 construct: gene CAAU_0066

[2] = biological target: T1, γ-CaCAmut; assay: spectrophotometric p-nitrophenol release at […] nm; type: biochemical; details: 0.1 M KH2PO4, pH 8.0, 25°C; 0.4-3.5 mM p-NPA; esterase activity

T1 sequence (G0V3M6 1-167 G68E/T67E/V46E/Y159N limits assumed): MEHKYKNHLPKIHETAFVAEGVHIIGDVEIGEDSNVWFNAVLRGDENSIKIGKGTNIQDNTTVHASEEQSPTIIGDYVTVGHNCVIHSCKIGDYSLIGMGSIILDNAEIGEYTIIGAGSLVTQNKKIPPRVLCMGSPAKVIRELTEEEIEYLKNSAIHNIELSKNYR

SMILES	% inhibition at 1 mM [1]	Km [2] [µM]
Nc1ccc(S(N)(=O)=O)cc1 [sulfanilamide]	Inhibition of γ‐CaCAmut by three common diagnostic CA inhibitors (sulfanilamide, azide, and EDTA)	–
CC(=O)Oc1ccc([N+](=O)[O-])cc1 [p-nitrophenyl acetate]	–	960 ± 50
